Reference: ChEMBL document CHEMBL1201862, “PubChem BioAssay data set” (2004)
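Results reflect a 48-hour exposure of cells in 96-well plates to compound at five concentrations. GI50 is the concentration that inhibits growth by half.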 Calls of active or inactive are those of the source. No stated cut-off is given here; in the data, active = GI50 up to about 1.1 µM and inactive = higher.

How the values were obtained:
Experiment in all cases: growth of human tumour cells (NCI), 48 h
CCRF-CEM = tested on: CCRF-CEM
EKVX = tested on: EKVX
HCC 2998 = tested on: HCC 2998
HCT-116 = tested on: HCT-116
HCT-15 = tested on: HCT-15
HOP-62 = tested on: HOP-62
HT-29 = tested on: HT-29
K562 = tested on: K562
MCF7 = tested on: MCF7
Malme-3M = tested on: Malme-3M
NCI-H522 = tested on: NCI-H522
OVCAR-4 = tested on: OVCAR-4
OVCAR-5 = tested on: OVCAR-5
RXF 393 = tested on: RXF 393
SK-MEL-28 = tested on: SK-MEL-28
SK-MEL-5 = tested on: SK-MEL-5
SK-OV-3 = tested on: SK-OV-3
SNB-19 = tested on: SNB-19
SW-620 = tested on: SW-620
UO-31 = tested on: UO-31

Measured: GI50

CSC1=C(C)C(/C=N/Nc2ccc([N+](=O)[O-])cc2)=C(C)N(c2ccccc2)S1(=O)=O
68.9 µM: HCT-15
inactive: CCRF-CEM > 100 µM | EKVX 33.9 µM | HCC 2998 25.8 µM | HCT-116 6.47 µM | HOP-62 > 100 µM | HT-29 28.5 µM | K562 7.71 µM | MCF7 32.4 µM | Malme-3M 94.2 µM | NCI-H522 12.9 µM | OVCAR-4 > 100 µM | OVCAR-5 > 100 µM | RXF 393 > 100 µM | SK-MEL-28 > 100 µM | SK-MEL-5 17.4 µM | SK-OV-3 > 100 µM | SNB-19 > 100 µM | SW-620 > 100 µM | UO-31 29.3 µM
